Experiments:
[1] = Stability test (high temperature, high humidity and light tests); format: physicochemical; settings: for stability (in words): high temperature, high humidity or light conditions for 10 days
Method: High temperature test: An appropriate amount of the test product was added into a flat weighing bottle and spread into a thin layer with thickness ≤5 mm. The bottle was placed at 60° C. or 40° C. for 10 days. Samples were taken at the 5th and 10th days to check the appearance, related substances and purity.
High humidity test: An appropriate amount of the test product was added into a flat weighing bottle and spread into a thin layer with thickness 5 mm. The bottle was placed at 25° C. and a relative humidity of 90%±5% for 10 days. Samples were taken at the 5th and 10th days to check the appearance, related substances and purity. At the same time, the weight of the test product before and after the test were accurately weighed to investigate the moisture absorption and deliquescence performance of the test product. Light test: An appropriate amount of the test product was added into a flat weighing bottle and spread into a thin layer with thickness ≤5 mm. The bottle was opened and placed in a light box (with UV) at the illuminance 4500±500 lx, UV light≥0.7 w/m^2 for 10 days. Samples were taken at the 5th and 10th days to check the appearance, related substances and purity.

[2] = Pharmacokinetic evaluation of experimental animals after oral administration; format: in vivo, Beagle dogs; settings: for AUC0-t / Cmax: beagle dogs, oral via capsules, 10 mg/kg; for absorption in the body / in animals (in words): dog, in vivo; for exposure / pharmacokinetic properties (in words): experimental animals, oral
Method: Blood samples were taken at 0.25, 0.5, 1, 2, 4, 6, 8 and 24 hours from forelimb vein after the administration, and collected in anticoagulation tube with EDTA-K2. After liquid-liquid extraction, the blood samples were quantitatively analyzed on a triple quadrupole tandem mass spectrometer using multiple reactive ion monitoring (MRM). Pharmacokinetic parameters (AUC0-t and Cmax) were calculated using a noncompartmental method by WinNonLin 6.3 software.

[3] = Experimental research on hygroscopicity; format: physicochemical; settings: 25° C.±1° C., relative humidity 90%±2%, 24 hours
Method: A dry stoppered glass weighing bottle (outer diameter was 50 mm, height was 15 mm) was placed in a suitable constant temperature dryer (a saturated solution of ammonium chloride or ammonium sulfate was placed at the bottom, the relative humidity was within 90%±2%) at 25° C.±1° C. the day before, and the weighing bottle was precisely weighed (m1). An appropriate amount of the test product was spread flat in the above weighing bottle. The thickness of the test product was generally about 1 mm, and the weighing bottle was precisely weighed (m2). The weighing bottle was opened and placed for 24 hours under the above constant temperature and humidity conditions with the bottle cap. The weighing bottle was closed and precisely weighed (m3), and the weight gain percentage (%) was calculated. Testing method: According to Ph.

[4] = High humidity (90% RH), 25° C., 5 days
[5] = High humidity (90% RH), 25° C., 10 days
[6] = High temperature (60° C.), 5 days
[7] = High temperature (60° C.), 10 days
[8] = Light (4500±500 lx, UV light≥0.7 w/m^2), 5 days
[9] = Light (4500±500 lx, UV light≥0.7 w/m^2), 10 days

Purity (%) ([1]; 0 days) | Purity (%) [1, 4] | Purity (%) [1, 5] | Purity (%) [1, 6] | Purity (%) [1, 7] | Purity (%) [1, 8] | Purity (%) [1, 9] | stability (in words) [1] | AUC0-t [2] | Cmax [2] | stability under high temperature (in words) ([1]; high temperature (such as 60° C.)) | Compound | absorption in the body / in animals (in words) [2] | exposure / pharmacokinetic properties (in words) [2] | Weight gain of moisture absorption (%) [3] | hygroscopicity judgment [3]
99.39% | 99.37% | 99.30% | 99.36% | 99.22% | 99.34% | 99.26% | very good | 8630 ng·h/mL | 4980 ng/mL | – | COC(=O)C1=C(CN2CCN3C(=O)N(c4ccc(CCC(=O)O)cc4F)C[C@@H]3C2)N=C(c2nccs2)N[C@H]1c1ccc(F)cc1Cl.Cl [3-(4-((S)-7-(((R)-6-(2-chloro-4-fluorophenyl)-5-(methoxycarbonyl)-2-(thiazol-2-yl)-1,6-dihydropyrimidin-4-yl)methyl)-3-oxohexahydroimidazo[1,5-a]pyrazine-2(3H)-yl)-3-fluorophenyl)prop ionic acid hydrochloride crystal form A] | better absorbed | higher exposure | 1.32% | slightly hygroscopicity
98.41% | 98.82% | 98.69% | 98.43% | 98.93% | 98.80% | 98.88% | very good | 5690 ng·h/mL | 3340 ng/mL | – | Br.COC(=O)C1=C(CN2CCN3C(=O)N(c4ccc(CCC(=O)O)cc4F)C[C@@H]3C2)N=C(c2nccs2)N[C@H]1c1ccc(F)cc1Cl [3-(4-((S)-7-(((R)-6-(2-chloro-4-fluorophenyl)-5-(methoxycarbonyl)-2-(thiazol-2-yl)-1,6-dihydropyrimidin-4-yl)methyl)-3-oxohexahydroimidazo[1,5-a]pyrazine-2(3H)-yl)-3-fluorophenyl)propionic acid hydrobromide crystal form A] | – | – | – | –
99.40% | 99.37% | 99.36% | 99.15% | 98.68% | 99.37% | 99.40% | very good | – | – | – | COC(=O)C1=C(CN2CCN3C(=O)N(c4ccc(CCC(=O)O)cc4F)C[C@@H]3C2)N=C(c2nccs2)N[C@H]1c1ccc(F)cc1Cl.CS(=O)(=O)O [3-(4-((S)-7-(((R)-6-(2-chloro-4-fluorophenyl)-5-(methoxycarbonyl)-2-(thiazol-2-yl)-1,6-dihydropyrimidin-4-yl)methyl)-3-oxohexahydroimidazo[1,5-a]pyrazine-2(3H)-yl)-3-fluorophenyl)propionic acid methanesulfonate crystal form A] | – | – | – | –
99.13% | 99.04% | 99.07% | 98.86% | 98.39% | 99.03% | 99.06% | very good | 4350 ng·h/mL | 2690 ng/mL | – | COC(=O)C1=C(CN2CCN3C(=O)N(c4ccc(CCC(=O)O)cc4F)C[C@@H]3C2)N=C(c2nccs2)N[C@H]1c1ccc(F)cc1Cl.O=P(O)(O)O [Phosphate crystal form A of the compound having Formula (Ia)] [3-(4-((S)-7-(((R)-6-(2-chloro-4-fluorophenyl)-5-(methoxycarbonyl)-2-(thiazol-2-yl)-1,6-dihydropyrimidin-4-yl)methyl)-3-oxohexahydroimidazo[1,5-a]pyrazine-2(3H)-yl)-3-fluorophenyl)prop ionic acid phosphate crystal form A] | – | – | – | –
99.34% | 99.29% | 99.36% | 87.42% | 60.31% | 99.30% | 99.30% | – | 1900 ng·h/mL | 907 ng/mL | unstable | COC(=O)C1=C(CN2CCN3C(=O)N(c4ccc(CCC(=O)O)cc4F)C[C@@H]3C2)N=C(c2nccs2)N[C@H]1c1ccc(F)cc1Cl.O=P(O)(O)O [Phosphate crystal form C of the compound having Formula (Ia)] [3-(4-((S)-7-(((R)-6-(2-chloro-4-fluorophenyl)-5-(methoxycarbonyl)-2-(thiazol-2-yl)-1,6-dihydropyrimidin-4-yl)methyl)-3-oxohexahydroimidazo[1,5-a]pyrazine-2(3H)-yl)-3-fluorophenyl)prop ionic acid phosphate crystal form C] | – | – | – | –
99.14% | 99.17% | 99.22% | 99.16% | 99.12% | 99.17% | 99.15% | very good | – | – | – | COC(=O)C1=C(CN2CCN3C(=O)N(c4ccc(CCC(=O)O)cc4F)C[C@@H]3C2)N=C(c2nccs2)N[C@H]1c1ccc(F)cc1Cl.O=S(=O)(O)O [Sulfate crystal form A of the compound having Formula (Ia)] [3-(4-((S)-7-(((R)-6-(2-chloro-4-fluorophenyl)-5-(methoxycarbonyl)-2-(thiazol-2-yl)-1,6-dihydropyrimidin-4-yl)methyl)-3-oxohexahydroimidazo[1,5-a]pyrazine-2(3H)-yl)-3-fluorophenyl)prop ionic acid sulfate crystal form A] | – | – | – | –

Compound | Purity (%) ([1]; 0 days) | Purity (%) [1, 4] | Purity (%) [1, 5] | Purity (%) [1, 6] | Purity (%) [1, 7] | Purity (%) [1, 8] | Purity (%) [1, 9] | stability (in words) [1] | AUC0-t [2] | Cmax [2] | stability under high temperature (in words) ([1]; high temperature (such as 60° C.)) | absorption in the body / in animals (in words) [2] | exposure / pharmacokinetic properties (in words) [2] | Weight gain of moisture absorption (%) [3] | hygroscopicity judgment [3]
COC(=O)C1=C(CN2CCN3C(=O)N(c4ccc(CCC(=O)O)cc4F)C[C@@H]3C2)NC(c2nccs2)=N[C@H]1c1ccc(F)cc1Cl.N=C(N)NCCC[C@H](N)C(=O)O [3-(4-((S)-7-(((R)-6-(2-chloro-4-fluorophenyl)-5-(methoxycarbonyl)-2-(thiazol-2-yl)-3,6-dihydropyrimidin-4-yl)methyl)-3-oxohexahydroimidazo[1,5-a]pyrazine-2(3H)-yl)-3-fluorophenyl)prop ionic acid L-arginine salt crystal form A] | 99.52% | 99.38% | 99.39% | 99.46% | 99.42% | 99.10% | 98.72% | very good | 13100 ng·h/mL | 6810 ng/mL | – | better absorbed | higher exposure | 1.34% | slightly hygroscopicity
CN(C)C=O.COC(=O)C1=C(CN2CCN3C(=O)N(c4ccc(CCC(=O)O)cc4F)C[C@@H]3C2)NC(c2nccs2)=N[C@H]1c1ccc(F)cc1Cl [3-(4-((S)-7-(((R)-6-(2-chloro-4-fluorophenyl)-5-(methoxycarbonyl)-2-(thiazol-2-yl)-3,6-dihydropyrimidin-4-yl)methyl)-3-oxohexahydroimidazo[1,5-a]pyrazine-2(3H)-yl)-3-fluorophenyl)prop ionic acid N,N-dimethylformamide complex] | 98.63% | 98.87% | 98.71% | 98.48% | 97.76% | 98.82% | 98.48% | very good | – | – | – | – | – | – | –

— US20240025905A1, “SALTS OF DIHYDROPYRIMIDINE DERIVATIVES, COMPLEXES AND USES THEREOF IN MEDICINE” (SUNSHINE LAKE PHARMA CO., LTD., priority 2020, published 2024)
